The test system of assay [1] is HCV genotype 1b (Con1) replicon in HUH-7 cells. The experiment in a line: HCV replicon luciferase reporter assay, genotype 1b. The assay is classed as cell-based. To be noted: Hepatitis C virus, 72 h, HCV genotype 1b replicon, 3 days incubation, Renilla luciferase, range classes. The source says:
An HCV replicon whole cell system was established as described by Lohmann V, Korner F, Koch J, Herian U, Theilmann L, Bartenschlager R., Science 285(5424):110-3 (1999) and modified to introduce a luciferase reporter, as first described by Krieger et al (Krieger N, Lohmann V, and Bartenschlager R, J. Virol. 75(10):4614-4624 (2001)). CDNA encoding a humanized form of the Renilla luciferase gene and a linker sequence fused directly to the 3′-end of the luciferase gene were introduced into the replicon construct using an Asc1 restriction site located in core, directly upstream of the neomycin marker gene. The adaptive mutation at position 1179 (serine to isoleucine) was also introduced (Blight K J, Kolykhalov, A A, Rice, C M, Science 290(5498):1972-1974). A stable cell line constitutively expressing this HCV replicon construct was generated by first linearizing plasmid DNAs with ScaI. RNA transcripts were synthesized in vitro using the T7 MegaScript transcription kit (Ambion, Austin, Tex.) according to manufacturer's directions. In vitro transcripts of the cDNA were transfected into the human hepatoma cell line, HUH-7. […] Resulting cell lines were characterized for positive and negative strand RNA production and protein production over time. […]
(§1) HCV replicon luciferase assays were developed to monitor the inhibitory effects of compounds described in the disclosure on HCV genotypes 1a and 1b viral replication. HUH-7 cells, constitutively expressing the HCV replicon, were grown in Dulbecco's Modified Eagle Media (DMEM) (Gibco-BRL) containing 10% Fetal calf serum (FCS) (Sigma) and 1 mg/mL G418 (Gibco-BRL). Compounds were serially diluted 3 folds in DMSO for a twenty-point titration and subsequently transferred to sterile 384-well tissue-culture treated plates (Corning cat #3571). The plates were then seeded with 50 μL of cells at a density of 3.0×10^3 cells/well in DMEM containing 4% FCS (final DMSO concentration at 0.5%). After 3 days incubation at 37° C., cells were analyzed for Renilla Luciferase activity using the EnduRen as substrate (Promega cat #E6485). The EnduRen substrate was diluted in DMEM and then added to the plates to a final concentration of 7.5 μM. The plates were incubated for 2 hrs at 37° C. and then read immediately for 30 seconds with Viewlux Imager (PerkinElmer) using a luminescence program. To assess cytotoxicity of compounds, CC50 values were generated by multiplexing the EnduRen-containing plates with Cell Titer-Blue (Promega, cat #G8082). Cell-Titer Blue (3 μL) was added to each well and incubated for 8 hrs at 37° C. The fluorescence signal from each well was read, with an excitation wavelength at 525/10 nm and an emission wavelength of 598/10 nm, using the Viewlux Imager.
(§2) The EC50 values for compounds were calculated by using a four-parameter logistic equation: y=A+((B−A)/(1+((C/x)^D))), where A and B denotes minimal and maximal % inhibition, respectively, C is the EC50, D is the hill slope and x represents compound concentration.
In general terms: A replicon is a self-replicating genome or part of one, used to study replication in cells.

The test system of assay [2] is HCV genotype 1a (H77 strain) replicon in HUH-7 cells. Nature of the assay: HCV replicon luciferase reporter assay, genotype 1a. It is filed as cell-based. The following applies: Hepatitis C virus, 72 h, HCV genotype 1a replicon, 3 days incubation, Renilla luciferase, range classes.
Excerpt: An HCV replicon whole cell system was established as described by Lohmann V, Korner F, Koch J, Herian U, Theilmann L, Bartenschlager R., Science 285(5424):110-3 (1999) and modified to introduce a luciferase reporter, as first described by Krieger et al (Krieger N, Lohmann V, and Bartenschlager R, J. Virol. 75(10):4614-4624 (2001)). CDNA encoding a humanized form of the Renilla luciferase gene and a linker sequence fused directly to the 3′-end of the luciferase gene were introduced into the replicon construct using an Asc1 restriction site located in core, directly upstream of the neomycin marker gene. The adaptive mutation at position 1179 (serine to isoleucine) was also introduced (Blight K J, Kolykhalov, A A, Rice, C M, Science 290(5498):1972-1974). A stable cell line constitutively expressing this HCV replicon construct was generated by first linearizing plasmid DNAs with ScaI. RNA transcripts were synthesized in vitro using the T7 MegaScript transcription kit (Ambion, Austin, Tex.) according to manufacturer's directions. In vitro transcripts of the cDNA were transfected into the human hepatoma cell line, HUH-7. […] Resulting cell lines were characterized for positive and negative strand RNA production and protein production over time.
A stable HCV replicon luciferase reporter cell line representing the genotype 1a H77 strain (Yanagi M, Purcell R H, Emerson S U, et al. Transcripts from a single full-length cDNA clone of hepatitis C virus are infectious when directly transfected into the liver of a chimpanzee. Proc Natl Acad Sci USA 1997; 94(16):8738-8743) was generated as described previously for the genotype 1b (Con1) replicon luciferase cell line. The replicon construct was modified by introducing mutations were introduced into the genes encoding the NS3 helicase domain (proline replaced by leucine at position 1496) and NS5A (serine to isoleucine at position 2204) to improve replication in cell culture.
as §1, §2

One may read the EC50 as the midpoint of the concentration-response curve. A low value points to higher potency in that assay.

In the case of `COc1ccc2c(O[C@@H]3C[C@H]4C(=O)N[C@]5(C(=O)NS(=O)(=O)C6(CF)CC6)C[C@H]5/C=C\[C@@H](C)CCC[C@@H](C)[C@H](NC(=O)OC(C)(C)C(F)(F)F)C(=O)N4C3)ncc(OC)c2c1` [Compound 13], the EC50 fell in the range of 2.01 to 5 nM in assay [1] and 5.01 to 68 nM in assay [2].

In the case of `COc1ccc2c(O[C@@H]3C[C@H]4C(=O)N[C@]5(C(=O)NS(=O)(=O)C6(CF)CC6)C[C@H]5/C=C\[C@H](C)CCC[C@@H](C)[C@H](NC(=O)OC(C)(C)C(F)(F)F)C(=O)N4C3)ncc(OC)c2c1` [Compound 12], the EC50 in assay [1] was in the range of 1.01 to 2 nM; in assay [2], 2.01 to 5 nM.

Take `COc1ccc2ncc(O[C@@H]3C[C@H]4C(=O)N[C@]5(C(=O)NS(=O)(=O)C6CC6)C[C@H]5/C=C\[C@H](C)CCC[C@@H](C)[C@H](NC(=O)OC(C)(C)C(F)(F)F)C(=O)N4C3)nc2c1` [Compound 30, 1,1,1-trifluoro-2-methylpropan-2-yl (2R,6S,7R,11R,13aS,14aR,16aS,Z)-14a-(cyclopropylsulfonylcarbamoyl)-2-(7-methoxyquinoxalin-2-yloxy)-7,11-dimethyl-5,16-dioxo-1,2,3,5,6,7,8,9,10,11,13a,14,14a,15,16,16a-hexadecahydrocyclopropa[e]pyrrolo[1,2-a][1,4]diazacyclopentadecin-6-ylcarbamate]: the EC50 is 0.2 to 1 nM in assay [1] and 2.01 to 5 nM in assay [2].

As for `COc1ccc2c(O[C@@H]3C[C@H]4C(=O)N[C@]5(C(=O)NS(=O)(=O)C6CC6)C[C@H]5/C=C\[C@H](C)CCC[C@@H](C)[C@H](NC(=O)OC(C)(C)C)C(=O)N4C3)ncc(OC)c2c1` [Compound 21, tert-butyl (2R,6S,7R,11R,13aS,14aR,16aS,Z)-14a-(cyclopropylsulfonylcarbamoyl)-2-(4,6-dimethoxyisoquinolin-1-yloxy)-7,11-dimethyl-5,16-dioxo-1,2,3,5,6,7,8,9,10,11,13a,14,14a,15,16,16a-hexadecahydrocyclopropa[e]pyrrolo[1,2-a][1,4]diazacyclopentadecin-6-ylcarbamate], the EC50 in assay [1] was in the range of 0.2 to 1 nM; in assay [2] it was 1.01 to 2 nM.

In the case of `COc1cnc(O[C@@H]2C[C@H]3C(=O)N[C@]4(C(=O)NS(=O)(=O)C5CC5)C[C@H]4/C=C\[C@H](C)CCC[C@@H](C)[C@H](NC(=O)OC(C)(C)C(F)(F)F)C(=O)N3C2)c2ccccc12` [Compound 3, 1,1,1-trifluoro-2-methylpropan-2-yl (2R,6S,7R,11R,13aS,14aR,16aS,Z)-14a-(cyclopropylsulfonylcarbamoyl)-2-(4-methoxyisoquinolin-1-yloxy)-7,11-dimethyl-5,16-dioxo-1,2,3,5,6,7,8,9,10,11,13a,14,14a,15,16,16a-hexadecahydrocyclopropa[e]pyrrolo[1,2-a][1,4]diazacyclopentadecin-6-ylcarbamate], the concentration for a half-maximal effect (EC50) in assay [1] and in assay [2] was 0.2 to 1 nM throughout.

Turning to `COc1ccc2c(O[C@@H]3C[C@H]4C(=O)N[C@]5(C(=O)NS(=O)(=O)C6(CF)CC6)C[C@H]5/C=C\[C@H](C)CCC[C@@H](C)[C@H](NC(=O)OC(C)(C)C)C(=O)N4C3)ncc(OC)c2c1` [Compound 11, tert-butyl (2R,6S,7R,11R,13aS,14aR,16aS,Z)-2-(4,6-dimethoxyisoquinolin-1-yloxy)-14a-(1-(fluoromethyl)cyclopropylsulfonylcarbamoyl)-7,11-dimethyl-5,16-dioxo-1,2,3,5,6,7,8,9,10,11,13a,14,14a,15,16,16a-hexadecahydrocyclopropa[e]pyrrolo[1,2-a][1,4]diazacyclopentadecin-6-ylcarbamate], the EC50 in assay [1] is 0.2 to 1 nM; in assay [2], 2.01 to 5 nM.

With `COc1ccc2ncc(O[C@@H]3C[C@H]4C(=O)N[C@]5(C(=O)NS(=O)(=O)C6(C)CC6)C[C@H]5/C=C\[C@@H](C)CCC[C@@H](C)[C@H](NC(=O)OC(C)(C)C(F)(F)F)C(=O)N4C3)nc2c1` [Compound 18], the EC50 in assay [1] and in assay [2] was 5.01 to 68 nM throughout.

With `COc1ccc2ncc(O[C@@H]3C[C@H]4C(=O)N[C@]5(C(=O)NS(=O)(=O)C6CC6)C[C@H]5/C=C\[C@@H](C)CCC[C@@H](C)[C@H](NC(=O)OC(C)(C)C(F)(F)F)C(=O)N4C3)nc2c1` [Compound 31, 1,1,1-trifluoro-2-methylpropan-2-yl (2R,6S,7R,11S,13aS,14aR,16aS,Z)-14a-(cyclopropylsulfonylcarbamoyl)-2-(7-methoxyquinoxalin-2-yloxy)-7,11-dimethyl-5,16-dioxo-1,2,3,5,6,7,8,9,10,11,13a,14,14a,15,16,16a-hexadecahydrocyclopropa[e]pyrrolo[1,2-a][1,4]diazacyclopentadecin-6-ylcarbamate], the EC50 in assay [1] and in assay [2] was 5.01 to 68 nM in each case.

On to `COc1ccc2ncc(O[C@@H]3C[C@H]4C(=O)N[C@]5(C(=O)NS(=O)(=O)C6(C)CC6)C[C@H]5/C=C\[C@H](C)CCC[C@@H](C)[C@H](NC(=O)OC(C)(C)C(F)(F)F)C(=O)N4C3)nc2c1` [Compound 17], for which the EC50 in assay [1] and in assay [2] was 5.01 to 68 nM in each case.

In the case of `COc1cnc(O[C@@H]2C[C@H]3C(=O)N[C@]4(C(=O)NS(=O)(=O)C5(C)CC5)C[C@H]4/C=C\[C@H](C)CCC[C@@H](C)[C@H](NC(=O)OC(C)(C)C(F)(F)F)C(=O)N3C2)c2cccc(Cl)c12` [Compound 25, 1,1,1-trifluoro-2-methylpropan-2-yl (2R,6S,7R,11R,13aS,14aR,16aS,Z)-2-(5-chloro-4-methoxyisoquinolin-1-yloxy)-7,11-dimethyl-14a-(1-methylcyclopropylsulfonylcarbamoyl)-5,16-dioxo-1,2,3,5,6,7,8,9,10,11,13a,14,14a,15,16,16a-hexadecahydrocyclopropa[e]pyrrolo[1,2-a][1,4]diazacyclopentadecin-6-ylcarbamate], the EC50 lay within 0.2 to 1 nM in assay [1] and 1.01 to 2 nM in assay [2].

In the case of `COc1cnc(O[C@@H]2C[C@H]3C(=O)N[C@]4(C(=O)NS(=O)(=O)C5CC5)C[C@H]4/C=C\[C@@H](C)CCC[C@@H](C)[C@H](NC(=O)OC(C)(C)C)C(=O)N3C2)c2cccc(Cl)c12` [Compound 6, tert-butyl (2R,6S,7R,11S,13aS,14aR,16aS,Z)-2-(5-chloro-4-methoxyisoquinolin-1-yloxy)-14a-(cyclopropylsulfonylcarbamoyl)-7,11-dimethyl-5,16-dioxo-1,2,3,5,6,7,8,9,10,11,13a,14,14a,15,16,16a-hexadecahydrocyclopropa[e]pyrrolo[1,2-a][1,4]diazacyclopentadecin-6-ylcarbamate], the EC50 in assay [1] is 2.01 to 5 nM; in assay [2] it was 1.01 to 2 nM.

The values are drawn from patent US8691757B2 (Bristol-Myers Squibb Company, priority 2011, dated 2014).
